Laboratory results as given in US9540343B2 (Gilead Sciences, Inc., priority 2011, dated 2017).

How the values were obtained:
HIV-IIIb = assay: Test A: Antiviral assay in MT4 cells; type: cell-based, HIV-1; conditions: MT-4 cells infected with HIV-IIIb, 5 days, CellTiter-Glo; for % inhibition at 2 μM: percent inhibition of virus-induced cell killing, from dose response curve at 2 uM drug; for inhibition at 2 µM: Human immunodeficiency virus 1, IIIB, MT4, 120 h, read-out: % inhibition at 2 μM, percent inhibition of virus-induced cell killing, from dose response curve at 2 uM drug
MT-4 cells = assay: in vitro; conditions: uninfected MT-4 cells, same protocol as Test A, 5 days, CellTiter-Glo
Method in brief: (§1)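 Cytoprotection read-out: CellTiter-Glo chemiluminescence after 5 days at 37 °C of HIV-IIIb-infected MT-4 cells (m.o.i. 0.003) with compound in 10-point 3-fold dilutions, quadruplicate, 10% FBS. Cytotoxicity (CC50) measured identically without virus.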

in vitro = conditions: human, uninfected MT-4 cells, CC50 (nM), same protocol as Test A, CellTiter-Glo
Method in brief: as §1

Compound	% inhibition at 2 μM (HIV-IIIb) [%]	CC50 (MT-4 cells) [µM]	inhibition at 2 µM (HIV-IIIb) [%]	CC50 at 5 days (in vitro) [nM]
CCC(C(=O)N[C@@H](Cc1cc(F)cc(F)c1)c1ncccc1-c1ccc(F)c(C(N)=O)c1)n1cc(C(F)(F)F)cn1 (single isomer, unassigned) [Example 566]	3	23.7		
CC12CCC(c3c(C(F)(F)F)nn(CC(=O)N[C@@H](Cc4cc(F)cc(F)c4)c4ncccc4-c4ccc(F)c(C(N)=O)c4)c31)C2(C)C (stereo partly drawn) [Example 93B, (S)-5-(2-(2-(3,5-difluorophenyl)-1-(2-(D-4,5,6,7-Tetrahydro-3-trifluoromethyl-7,8,8-trimethyl-1H-4,7-(methano)indazol-1-yl)acetamido)ethyl)pyridin-3-yl)-2-fluorobenzamide]	0	8.14		
CC(C)CC(=O)NS(=O)(=O)c1ccc(-c2cccnc2C(Cc2cc(F)cc(F)c2)NC(=O)Cn2nc(C(F)F)c3c2C(F)(F)C2C[C@H]32)cc1 (stereo partly drawn) [Example 427, (S)—N-(1-(3-(4-(N-(3-methylbutanoyl)sulfamoyl)phenyl)-pyridin-2-yl)-2-(3,5-difluorophenyl)ethyl)-2-(3-(difluoromethyl)-5,6-dihydro-4,5-(methano)-6,6-difluoro-cyclopenta[c]pyrazol-1(4H)-yl)acetamide]	0	32.8		
NC(=O)c1cc(-c2cccnc2[C@H](Cc2cc(F)cc(F)c2)NC(=O)Cn2nc(C(F)(F)F)c3c2C(O)C2CC32)ccc1F (stereo partly drawn) [Example 156, 5-(2-((1S)-2-(3,5-difluorophenyl)-1-(2-(5-hydroxy-3-(trifluoromethyl)-3b,4,4a,5-tetrahydro-1H-cyclopropa[3,4]cyclopenta[1,2-c]pyrazol-1-yl)acetamido)ethyl)pyridin-3-yl)-2-fluorobenzamide]	30	39.2		
Cc1cc2ncn(C(CC(F)(F)F)C(=O)N[C@@H](Cc3cc(F)cc(F)c3)c3ncccc3-c3ccc(F)c(C(N)=O)c3)c2cc1C (single isomer, unassigned) [Example 571]	2	34.8		
NC(=O)c1cc(-c2cccnc2[C@H](Cc2cc(F)cc(F)c2)NC(=O)Cn2nc(C(F)F)c3c2CC2CC32)ccc1F (single isomer, unassigned) [Example 249]	100	23.4		
CCC(C(=O)N[C@@H](Cc1cc(F)cc(F)c1)c1ncccc1-c1ccc(F)c(C(N)=O)c1)n1nc(C(F)(F)F)c2c1CCCC2 (single isomer, unassigned) [Example 531]	98	7.4		
NC(=O)c1cc(-c2cccnc2[C@H](Cc2cc(F)cc(F)c2)NC(=O)C(c2ccccc2)C2CCCC2)ccc1F (single isomer, unassigned) [Example 552]	8	11		
Cc1cc(-c2cccnc2[C@H](Cc2cc(F)cc(F)c2)NC(=O)Cc2c[nH]c3ccc(F)cc23)cnc1F [Example 399]	31	12.8		
O=C(N[C@@H](Cc1cc(F)cc(F)c1)c1ncccc1-c1ccc(Cl)cc1)C(c1c[nH]c2ccc(F)cc12)C(F)(F)F (single isomer, unassigned) [Example 36G]	0	6.93		
CCC(C(=O)N[C@@H](Cc1cc(F)cc(F)c1)c1ncccc1-c1ccc(F)c(C(N)=O)c1)n1nc(C(F)F)cc1C(F)F (single isomer, unassigned) [Example 484]	25	27.4		
CCC(C(=O)N[C@@H](Cc1cc(F)cc(F)c1)c1ncccc1-c1ccc(F)c(C(N)=O)c1)n1cc(C(C)=O)c2ccccc21 (stereo partly drawn) [Example 554, 5-(2-((1S)-1-(2-(3-acetyl-1H-indol-1-yl)butanamido)-2-(3,5-difluorophenyl)ethyl)pyridin-3-yl)-2-fluorobenzamide]	63	48.9		
CCC(C(=O)N[C@@H](Cc1cc(F)cc(F)c1)c1ncccc1-c1ccc(F)c(C(N)=O)c1)n1cc(C(C)=O)c2ccccc21 (stereo partly drawn) [Example 544, 5-(2-((1S)-1-(2-(3-acetyl-1H-indol-1-yl)butanamido)-2-(3,5-difluorophenyl)ethyl)pyridin-3-yl)-2-fluorobenzamide]	75	> 53.2		
O=C(Cn1nc(C(F)F)c2c1C1CC1CC2)NC(Cc1cc(F)cc(F)c1)c1ncncc1-c1cnc2[nH]ccc2c1 (single isomer, unassigned) [Example 348]	103	14.2		
CCC(C(=O)N[C@@H](Cc1cc(F)cc(F)c1)c1ncccc1-c1ccc(F)c(C(N)=O)c1)n1nc(C(F)(F)F)c2c1CCCC2 (single isomer, unassigned) [Example 532]	9	12.2		
CCC(C(=O)N[C@@H](Cc1cc(F)cc(F)c1)c1ncccc1-c1ccc(F)c(C(N)=O)c1)n1ccc(C(F)(F)F)n1 (single isomer, unassigned) [Example 573]	18	30.1		
CN(C)C(C(=O)N[C@@H](Cc1cc(F)cc(F)c1)c1ncccc1-c1ccc(F)c(C(N)=O)c1)c1ccc(F)cc1 (single isomer, unassigned) [Example 590]	13	38.6		
CCC(C(=O)N[C@@H](Cc1cc(F)cc(F)c1)c1ncccc1-c1ccc(F)c(C(N)=O)c1)n1ccnc1C(C)C (single isomer, unassigned) [Example 586]	1	> 53.2		
O=C(Cn1nc(C(F)F)c2c1C1CC1CC2)NC(Cc1cc(F)cc(F)c1)c1ncncc1-c1cnc2[nH]ccc2c1 (single isomer, unassigned) [Example 347]	1	19.4		
NC(=O)c1cccc(-c2cccnc2[C@H](Cc2cc(F)cc(F)c2)NC(=O)CC2C(=O)Nc3ccccc32)c1 (stereo partly drawn) [Example 192, 3-(2-((1S)-2-(3,5-difluorophenyl)-1-(2-(2-oxoindolin-3-yl)acetamido)ethyl)pyridin-3-yl)benzamide]	2	47.6		
CCCCC(C(=O)N[C@@H](Cc1cc(F)cc(F)c1)c1ncccc1-c1ccc(F)c(C(N)=O)c1)n1ccc(C(F)(F)F)n1 (single isomer, unassigned) [Example 488]	8	12.4		
(S)-5-(2-(1-(2-(5-(difluoromethyl)-3-phenyl-1H-pyrazol-1-yl)acetamido)-2-(3,5-difluorophenyl)ethyl)pyridin-3-yl)-2-fluorobenzamide [Example 240C]	0	34.9		
NC(=O)c1cc(-c2cccnc2[C@H](Cc2cc(F)cc(F)c2)NC(=O)Cn2nc(C(F)(F)F)c3c2[C@H]2C[C@H]2C3)ccc1F (single isomer, unassigned) [Example 186]	80	16.8		
CNS(=O)(=O)c1ccc(-c2cccnc2C(Cc2cc(F)cc(F)c2)NC(=O)Cn2nc(C(F)F)c3c2C(F)(F)C2C[C@H]32)cc1 (stereo partly drawn) [Example 429, (S)—N-(1-(3-(4-(N-methylsulfamoyl)phenyl)-pyridin-2-yl)-2-(3,5-difluorophenyl)ethyl)-2-(3-(difluoromethyl)-5,6-dihydro-4,5-(methano)-6,6-difluoro-cyclopenta[c]pyrazol-1(4H)-yl)acetamide]	57	41.6		
CC(C)CC(C(=O)N[C@@H](Cc1cc(F)cc(F)c1)c1ncccc1-c1ccc(F)c(C(N)=O)c1)n1ccc(C(F)(F)F)n1 (single isomer, unassigned) [Example 582]	5	14.4		
NC(=O)c1cc(-c2cccnc2[C@H](Cc2cc(F)cc(F)c2)NC(=O)Cn2nc(C(F)(F)F)c3c2C(O)C2CC32)ccc1F (stereo partly drawn) [Example 155, 5-(2-((1S)-2-(3,5-difluorophenyl)-1-(2-(5-hydroxy-3-(trifluoromethyl)-3b,4,4a,5-tetrahydro-1H-cyclopropa[3,4]cyclopenta[1,2-c]pyrazol-1-yl)acetamido)ethyl)pyridin-3-yl)-2-fluorobenzamide]	97	37		
(S)—N-(1-(3-(4-(pyrrolidinylcarbonylamino)phenyl)-pyridin-2-yl)-2-(3,5-difluorophenyl)ethyl)-2-(3-(difluoromethyl)-5,6-dihydro-4,5-(methano)-6,6-difluoro-cyclopenta[c]pyrazol-1(4H)-yl)acetamide [Example 80]	0	> 53.2		
NC(=O)c1cc(-c2cccnc2[C@H](Cc2cc(F)cc(F)c2)NC(=O)C2CCCN2Cc2ccccc2)ccc1F (stereo partly drawn) [Example 166, 1-benzyl-N—((S)-1-(3-(3-carbamoyl-4-fluorophenyl)pyridin-2-yl)-2-(3,5-difluorophenyl)ethyl)pyrrolidine-2-carboxamide]			0	6360
CC(C)c1cc(C(F)(F)F)n(CC(=O)N[C@@H](Cc2cc(F)cc(F)c2)c2ncccc2-c2ccc(F)c(C(N)=O)c2)n1 [Example 236D, (S)-5-(2-(2-(3,5-difluorophenyl)-1-(2-(3-isopropyl-5-(trifluoromethyl)-1H-pyrazol-1-yl)acetamido)ethyl)pyridin-3-yl)-2-fluorobenzamide]			15	25600
O=C(Cn1nc(C(F)F)c2c1C(F)(F)CCC2(F)F)N[C@@H](Cc1cc(F)cc(F)c1)c1ncccc1-c1ccc2c(c1)CNC2=O [Example 508D, (S)-2-(3-(difluoromethyl)-4,4,7,7-tetrafluoro-4,5,6,7-tetrahydro-1H-indazol-1-yl)-N-(2-(3,5-difluorophenyl)-1-(3-(1-oxoisoindolin-5-yl)pyridin-2-yl)ethyl)acetamide]			96	5130
